The target in the test is T1, bacterial NAD synthetase enzyme (Bacillus subtilis, UniProt P08164).
T1 sequence (P08164 2-272 limits assumed): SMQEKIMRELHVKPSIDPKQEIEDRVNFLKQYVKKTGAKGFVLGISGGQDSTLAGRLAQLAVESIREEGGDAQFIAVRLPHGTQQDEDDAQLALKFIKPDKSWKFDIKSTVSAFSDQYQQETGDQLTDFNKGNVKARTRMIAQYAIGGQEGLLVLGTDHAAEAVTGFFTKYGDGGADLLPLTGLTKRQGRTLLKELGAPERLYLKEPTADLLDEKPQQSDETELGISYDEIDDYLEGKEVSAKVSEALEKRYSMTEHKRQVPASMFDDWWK
In words: biochemical. It counts as biochemical.

The mark [1] stands for this setting: compound at 0.2 mM (Table 312A).
Setting [2] is: compound at 0.2 mM (Table 312B).

Molecules are shown by their SMILES.

On to `C[n+]1ccc(C(=O)OCCCCCCCCc2cc3ccc(C(F)(F)F)cc3[nH]2)cc1` [Compound 900], for which the “% Inhibition” value (compound at 0.25 mM) came out at 84.9%. The compound `C[n+]1cccc(C(=O)OCCCCCCCc2cc3cc(Oc4ccccc4)ccc3[nH]2)c1` [Compound 917] registered an IC50 of 60 µM and an inhibition at 250 µM of 88.9%.

For `O=C(O)c1ccc2[nH]c(CCCCC[n+]3cccc4ccccc43)cc2c1` [Compound 494], under setting [1], the “% Inhibition” value was 17.44%. `C[N+](C)(C)c1ccc(CC(=O)OCCCCCCCCOc2ccccc2C=CC(=O)c2ccccc2)cc1` [Compound 1086] registered a half-maximal inhibitory concentration (IC50) of 27.5 µM and an inhibition at 200 µM of 81%. As for `O=[N+]([O-])c1cc([N+](=O)[O-])c2[nH]c(CCC[n+]3cccc4ccccc43)cc2c1` [Compound 414], the “% Inhibition” value under setting [1] turned out to be 6.91%. For `c1ccc(-c2ccc3[nH]c(CCCC[n+]4ccc5ccccc5c4)cc3c2)cc1` [Compound 541], the “% Inhibition” value (compound at 0.1 mM (Table 314)) amounted to 10.26%. Take `Cc1ccc2[nH]c(CCCCCCCC[n+]3ccc4ccccc4c3)cc2c1` [Compound 515]: under setting [1], the “% Inhibition” value stood at 30.39%. For `CN(C)c1ccc(CC(=O)OCCCCCCCCOc2ccc(C(=O)c3ccccc3)cc2)cc1` [Compound 1040], the “% Inhibition” value under setting [2] amounted to 3%. Turning to `c1ccc(C(c2ccccc2)(c2ccccc2)c2ccc3[nH]c(CCC[n+]4ccccc4)cc3c2)cc1` [Compound 336], for the setting “compound at 0.1 mM (Table 314)”, the “% Inhibition” value is reported as 18.02%. `CC(C)c1ccc2[nH]c(CCCC[n+]3ccccc3)cc2c1` [Compound 319]: the “% Inhibition” value (compound at 0.1 mM (Table 314)) is reported as 16.99%. For `Fc1ccc2[nH]c(CCC[n+]3ccc4ccccc4c3)cc2c1` [Compound 558], the “% Inhibition” value under setting [1] stood at 1.27%. `O=C(O)c1ccc2[nH]c(CCCCCCC[n+]3ccccc3)cc2c1` [Compound 388]: under setting [1], the “% Inhibition” value came out at 25.86%. For `COc1ccc2[nH]c(CCCCCCC[n+]3ccccc3)cc2c1` [Compound 376], the “% Inhibition” value (compound at 0.1 mM (Table 314)) stood at 37.32%. Regarding `Fc1ccc2[nH]c(CCCCCCC[n+]3ccccc3)cc2c1` [Compound 346], the “% Inhibition” value (compound at 0.1 mM (Table 314)) came to 42.57%. In the case of `c1ccc(Oc2ccc3[nH]c(CCCCCCCC[n+]4ccc5ccccc5c4)cc3c2)cc1` [Compound 569], the “% Inhibition” value under setting [1] was determined as 34.84%. For the compound `CC(C)c1ccc2[nH]c(CCCCCCCOC(=O)c3cccc([N+](C)(C)C)c3)cc2c1` [Compound 875], the IC50 was determined as 45 µM and the inhibition at 100 µM stood at 93.6%. On to `CN(C)c1ccc(CC(=O)OCCCCCCCCOc2ccccc2N2CCCC2)cc1` [Compound 1046], for which, under setting [2], the “% Inhibition” value stood at 2%.

Regarding `CN(C)c1ccc(CC(=O)OCCCCCCCCOc2ccccc2N2CCOCC2)cc1` [Compound 1047], the “% Inhibition” value under setting [2] came to 45%. On to `O=C(O)c1ccc2[nH]c(CCCC[n+]3ccc4ccccc4c3)cc2c1` [Compound 601], for which the “% Inhibition” value under setting [1] worked out at 2.22%. As for `O=C(c1ccccc1)c1ccc2[nH]c(CCCCCCC[n+]3ccc4ccccc4c3)cc2c1` [Compound 574], under setting [1], the “% Inhibition” value stood at 11.95%. With `Fc1ccc2[nH]c(CCCCCCC[n+]3cccc4ccccc43)cc2c1` [Compound 454], under setting [1], the “% Inhibition” value is on record as 7.95%.

In the case of `C[n+]1cccc(C(=O)OCCCCCCCCCn2ccc3ccccc32)c1` [Compound 970], the midpoint of inhibition, the IC50, lay at 55 µM and the inhibition at 200 µM came to 96.7%. For `CN(C)c1ccc(CC(=O)OCCCCCCCCOc2ccc(C=CC(=O)c3ccccc3)cc2)cc1` [Compound 1034], under setting [2], the “% Inhibition” value is 30%. Consider `C[N+](C)(C)c1ccc(CC(=O)OCCCCCCn2ccc3ccccc32)cc1` [Compound 979], for which the “% Inhibition” value under setting [1] is listed as 38.72%. For `CCCCc1ccc2[nH]c(CCCCCCCC[n+]3ccccc3)cc2c1` [Compound 317], the “% Inhibition” value (compound at 0.1 mM (Table 314)) worked out at 25.04%. Consider `Cc1ccc2[nH]c(CCC[n+]3ccc4ccccc4c3)cc2c1` [Compound 510], for which the “% Inhibition” value under setting [1] amounted to 20.99%.

With `COC(=O)c1cc2ccccc2n1CCCCCCCOC(=O)Cc1ccc(N(C)C)cc1` [Compound 960], the “% Inhibition” value (compound at 0.05 mM) amounted to 6.37%. In the case of `FC(F)(F)c1ccc2cc(CCCCCC[n+]3cccc4ccccc43)[nH]c2c1` [Compound 399], the “% Inhibition” value under setting [1] was 15.22%. `C[N+](C)(C)c1ccc(CC(=O)OCCCCCCCCOc2ccc(OC(=O)c3ccccc3)cc2)cc1` [Compound 1082]: 50 µM corresponded to half-maximal inhibition (IC50) and testing at 200 µM gave an inhibition of 81%. Consider `C[N+](C)(C)c1cccc(C(=O)OCCCCc2cc3ccc(C(F)(F)F)cc3[nH]2)c1` [Compound 868], for which, under “compound at 0.25 mM”, the “% Inhibition” value is 13.5%. Take `O=[N+]([O-])c1cc([N+](=O)[O-])c2[nH]c(CCCCCCCC[n+]3ccccc3)cc2c1` [Compound 311]: the “% Inhibition” value under setting [1] was 29.67%. Regarding `CC(C)c1ccc2[nH]c(CCCCOC(=O)c3cc[n+](C)cc3)cc2c1` [Compound 904], the “% Inhibition” value (compound at 0.1 mM (Table 314)) was 47.68%. `CC(C)c1ccc2[nH]c(CCCCCCC[n+]3ccccc3)cc2c1` [Compound 322]: the “% Inhibition” value under setting [1] is 14.40%. As for `O=[N+]([O-])c1ccc2c(ccn2CCCCCCCC[n+]2ccccc2)c1` [Compound 6], the “% Inhibition” value under setting [1] was 5.67%. Consider `O=C(OCCCCCCCCOc1ccccc1N1CCOCC1)c1cccnc1` [Compound 1020], for which, under setting [2], the “% Inhibition” value is given as 8%. Take `Fc1ccc2[nH]c(CCCC[n+]3ccc4ccccc4c3)cc2c1` [Compound 559]: the “% Inhibition” value under setting [1] amounted to 33.24%. Turning to `C[N+](C)(C)c1ccc(CC(=O)OCCCCCCCCOc2cccc(N3CCOCC3)c2)cc1` [Compound 1092], under setting [2], the “% Inhibition” value worked out at 60%.

Take `O=C(OCCCCCCCn1ccc2ccccc21)c1cccnc1` [Compound 944]: the “% Inhibition” value (compound at 0.05 mM) is 2.06%. For `c1ccc(-c2ccc3[nH]c(CCCCCC[n+]4cccc5ccccc54)cc3c2)cc1` [Compound 435], under setting [1], the “% Inhibition” value is given as 17.24%. Regarding `CC(=O)c1ccc2[nH]c(CCCCOC(=O)c3ccc[n+](C)c3)cc2c1` [Compound 922], the “% Inhibition” value (compound at 0.25 mM) is listed as 87.4%. The same measure, in the same setting: next, `C[N+](C)(C)c1cccc(C(=O)OCCCCc2cc3cc(Oc4ccccc4)ccc3[nH]2)c1` [Compound 871]: 81.9%. For `COC(=O)c1cc2cc(OCc3ccccc3)ccc2n1CCCCCCCOC(=O)c1ccc(C[N+](C)(C)C)cc1` [Compound 1097], it took 63.7 µM to reach half-maximal inhibition (IC50) and 200 µM produced 98% inhibition. Consider `Fc1cc(F)c2[nH]c(CCCCCCCC[n+]3cccc4ccccc43)cc2c1` [Compound 413], for which the “% Inhibition” value under setting [1] was 4.76%.

For the compound `CN(C)c1ccc(CC(=O)OCCCCCCCCOc2cccc([N+](=O)[O-])c2)cc1` [Compound 1036], the “% Inhibition” value under setting [2] is reported as 6%. On to `C[n+]1cccc(C(=O)OCCCCCCCCc2cc3ccc(C(F)(F)F)cc3[nH]2)c1` [Compound 915], for which the “% Inhibition” value (compound at 0.25 mM) worked out at 95.7%. On to `C[N+](C)(C)c1ccc(C(=O)OCCCCCCCCc2cc3cc(Oc4ccccc4)ccc3[nH]2)cc1` [Compound 888], for which, for the setting “compound at 0.25 mM”, the “% Inhibition” value is given as 99.0%. `Fc1cc(F)c2[nH]c(CCCCC[n+]3ccccc3)cc2c1` [Compound 302]: the “% Inhibition” value under setting [1] is given as 21.48%.

Regarding `COc1ccc2[nH]c(CCC[n+]3ccc4ccccc4c3)cc2c1` [Compound 588], the “% Inhibition” value under setting [1] was found to be 2.49%.

In the case of `CCCCc1ccc2[nH]c(CCCCCCCC[n+]3cccc4ccccc43)cc2c1` [Compound 425], the “% Inhibition” value under setting [1] is on record as 19.12%.

On to `C[n+]1cccc(C(=O)OCCCCCCCCOc2ccc(N3C(=O)c4ccccc4C3=O)cc2)c1` [compound 1071], for which the “% Inhibition” value under setting [2] is recorded as 55%.

For the origin of these results see US6727237B2, “Inhibitors of bacterial NAD synthetase” (priority 1998, dated 2004).
